{
  "source": "patent US7498303B2",
  "about": "“GNRH analogues for treatment of urinary incontinence” (priority 2000, dated 2009)",
  "key": {"[1]": {"system": "excessive growth of the undercoat (baby coat) due to spaying", "assay": "Excessive growth of the undercoat due to spaying in cocker spaniel bitches", "assay_type": "in vivo, dog", "conditions": "5 mg slow release s.c. implant", "method": "Two cocker spaniel bitches belonging to the same owner were showing excessive growth of the undercoat due to spaying. […] Both dogs were first clinically examined and thereafter a GnRH analogue (Deslorelin) in a dosage of 5 mg, in slow release form, was subcutaneously implanted between the shoulder blades."}, "[2]": {"system": "urinary incontinence after spaying", "assay": "GnRH analogue slow release implant in bitches with urinary incontinence after spaying", "assay_type": "in vivo, dog", "conditions": "slow release s.c. implant", "method": "Additionally, for a limited period the dogs were treated with phenylpropanolamine in a dosage of 1.5 mg/kg BW tid orally.\nAfter discontinuation of the shortacting phenylpropanolamine 8 bitches remained continent. Their continence was therefore achieved solely by the treatment with the composition as described in the present invention. Seven out of fifteen dogs seemed to be much happier and in none of the dogs did the general condition deteriorate. […] The respective results are shown in more detail in table 1."}, "urinary incontinence": {"system": "urinary incontinence", "assay": "Double-blind, placebo-control study in client owned dogs suffering from urinary incontinence", "assay_type": "in vivo, dog", "method": "In a second ongoing study, 16 client owned dogs suffering from urinary incontinence were enrolled in a double-blind, placebo-control study. In the initial phase of the study, dogs were randomly assigned to treatment with a long-acting GnRH analogue (leuprolide acetate) or placebo (dog owners and the investigators were blinded to treatment) along with a short course of therapy with phenylpropanolamine. 5 weeks after treatment with drug or placebo, dogs were evaluated and, if not fully continent, treated with a long-acting GnRH analogue (leuprolide acetate) in an open label phase of the study. To date only 1 of 10 dogs treated with placebo became continent vs. […] treated with drug during the blinded portion of the study. Overall, the results generated thus far indicate […] dogs treated with the long-acting GnRH analogue became continent and […] improved after discontinuation of the short acting phenylpropanolamine. Only 1 dog of 15 treated with the GnRH analogue was considered not to have improved following treatment with the drug."}, "stress incontinence": {"system": "stress incontinence", "assay": "Menopausal person with stress incontinence, 24 hour pad test", "assay_type": "in vivo, human", "conditions": "single dose of 3.75 mg, one person", "method": "A second menopausal person, suffering from stress incontinence for at least 6 years, was treated with a single dose of 3.75 mg of leuprolide acetate. 24 hour pad tests conducted prior to treatment with the drug indicated they lost between 10 and 130 ml of urine on a daily basis due to their incontinence."}, "[3]": {"system": "urinary incontinence of the bitch", "conditions": "1.5 mg/kg BW p.o., given every 8 hours; cited from earlier work"}, "[4]": {"system": "urge incontinence and hotflushes", "assay": "Perimenopausal person with urge incontinence and hot flushes", "assay_type": "in vivo, human", "conditions": "3.75 mg; one perimenopausal person"}, "[5]": {"conditions": "11,25 mg, without PPA, one dog per line, listed as Leuprorelin acetate"}, "[6]": {"conditions": "6,3 mg, without PPA, one dog per line"}, "[7]": {"conditions": "6 mg, without PPA, one dog per line"}, "[8]": {"conditions": "12 mg, with PPA, one dog per line"}, "[9]": {"conditions": "12 mg, without PPA, one dog per line"}},
  "note": "Where “and” joins values, the source holds several entries; their conditions need not be identical. Identical values can stand only once. Counter-ions that a name gives are not always drawn.",
  "data": [
    {"compound": "CCNC(=O)[C@@H]1CCCN1C(=O)[C@H](CCCN=C(N)N)NC(=O)[C@H](CC(C)C)NC(=O)[C@@H](Cc1c[nH]c2ccccc12)NC(=O)[C@H](Cc1ccc(O)cc1)NC(=O)[C@H](CO)NC(=O)[C@H](Cc1c[nH]c2ccccc12)NC(=O)[C@H](Cc1cnc[nH]1)NC(=O)[C@@H]1CCC(=O)N1", "note": "[Deslorelin]", "values": [
      {"measurement": "Coat quality", "setting": "[1]; 5 weeks after the injection, both of two dogs", "value": "obvious amelioration of the coat quality"},
      {"measurement": "Signs of baby coat", "setting": "[1]; 21 weeks after injection, two dogs", "value": "no signes of “baby coat” were apparent anymore"}
    ]},
    {"compound": "CCNC(=O)[C@@H]1CCCN1C(=O)[C@H](CCCNC(=N)N)NC(=O)[C@H](CC(C)C)NC(=O)[C@@H](CC(C)C)NC(=O)[C@H](Cc1ccc(O)cc1)NC(=O)[C@H](CO)NC(=O)[C@H](Cc1c[nH]c2ccccc12)NC(=O)[C@H](Cc1c[nH]cn1)NC(=O)[C@@H]1CCC(=O)N1", "note": "[Leuprorelinacetate, leuprolide acetate]", "values": [
      {"measurement": "Duration of effect after treatment", "setting": "[2]; 11,25 mg, with PPA, one dog", "value": ">64", "unit": "days"},
      {"measurement": "Effect on incontinence", "setting": "[2]; 11,25 mg, with PPA, one dog", "value": 100, "unit": "%"},
      {"measurement": "Duration of effect after treatment", "setting": "[2]; 11,25 mg, without PPA, one dog per line", "value": 0, "unit": "days"},
      {"measurement": "Duration of effect after treatment", "setting": "[2]; [5]", "value": ">14", "unit": "days"},
      {"measurement": "Effect on incontinence", "setting": "[2]; [5]", "value": 100, "unit": "%"},
      {"measurement": "Dogs that became continent during the blinded portion of the study", "setting": "urinary incontinence; long-acting, with short course of phenylpropanolamine, evaluated 5 weeks after treatment, placebo 1 of 10", "value": "3 to 8", "unit": "dogs"},
      {"measurement": "Dogs considered not to have improved following treatment", "setting": "urinary incontinence; of 15 treated", "value": 1, "unit": "dog"},
      {"measurement": "Dogs that became continent after discontinuation of phenylpropanolamine (overall)", "setting": "urinary incontinence; of 15 treated, blinded and open label phases, ongoing study", "value": 6, "unit": "dogs"},
      {"measurement": "Remaining dogs that improved after discontinuation of phenylpropanolamine", "setting": "urinary incontinence; of 15 treated, ongoing study", "value": 9, "unit": "dogs"},
      {"measurement": "Daily urine loss, pad test", "setting": "stress incontinence; 2 weeks after treatment, before treatment 10 to 130 ml daily", "value": 1, "unit": "mL"},
      {"measurement": "Patient's judgement of the effects of the therapy", "setting": "stress incontinence", "value": "very satisfied"}
    ]},
    {"compound": "CN[C@@H](C)[C@H](O)c1ccccc1", "note": "[ephedrinhydrochloride]", "values": [
      {"measurement": "Continence achieved", "setting": "[3]", "value": 74, "unit": "%"}
    ]},
    {"compound": "CC(N)C(O)c1ccccc1", "note": "(centres unmarked) [phenylpropanolamine]", "values": [
      {"measurement": "Continence achieved", "setting": "[3]", "value": 74, "unit": "%"}
    ]},
    {"compound": "Buserelin acetate [Buserelinacetate]", "values": [
      {"measurement": "Duration of effect after treatment", "setting": "[2]; [6]", "value": "44 days and 83 days"},
      {"measurement": "Effect on incontinence", "setting": "[2]; [6]", "value": 100, "unit": "%"}
    ]},
    {"compound": "Deslorelin acetate [Deslorelinacetate]", "values": [
      {"measurement": "Side effects", "setting": "[2]; 6 mg, one dog per line", "value": "More playfull"},
      {"measurement": "Duration of effect after treatment", "setting": "[2]; 6 mg, with PPA, one dog", "value": ">336", "unit": "days"},
      {"measurement": "Effect on incontinence", "setting": "[2]; 6 mg, with PPA, one dog per line", "value": 100, "unit": "%"},
      {"measurement": "Duration of effect after treatment", "setting": "[2]; [7]", "value": ">47 days and >344 days and >340 days"},
      {"measurement": "Effect on incontinence", "setting": "[2]; [7]", "value": 100, "unit": "%"},
      {"measurement": "Duration of effect after treatment", "setting": "[2]; [8]", "value": "135 days and >318 days and >225 days"},
      {"measurement": "Effect on incontinence", "setting": "[2]; [8]", "value": "80% and 100% (2×)"},
      {"measurement": "Duration of effect after treatment", "setting": "[2]; [9]", "value": "64 days and >64 days and >209 days"},
      {"measurement": "Effect on incontinence", "setting": "[2]; [9]", "value": 100, "unit": "%"}
    ]},
    {"compound": "Triptorelin acetate [Triptorelinacetate]", "values": [
      {"measurement": "Duration of effect after treatment", "setting": "[2]; 3,75 mg, footnote: dose too low, one dog", "value": 0},
      {"measurement": "Period of improvement of both symptoms", "setting": "[4]", "value": "about 4 weeks"},
      {"measurement": "Urge incontinence and hotflushes, patient report", "setting": "[4]", "value": "improved considerably"}
    ]}
  ]
}
